Experimental data: patent publication US8343945B2, “Carriers, formulations, methods for formulating unstable active agents for external application and uses thereof” (Foamix Ltd., priority 2007, dated 2013)
“Also recorded” adds a separate entry of the source.

Tests used:
[1] = Minocycline HCl compatibility tests with excipients (colour change, HPLC assay); type: physicochemical; details: for Compatibility with Minocycline HCL: Summary, compatibility tested after the storage for up to 3 weeks
Protocol: About 0.5 g foam or pre-foam formulation is dissolved with diluent (65% phosphate buffer: 35% Acetonitrile (ACN)) in a 25 mL volumetric flask. The sample is shaken […] on an inverted shaker stand for 10 min at room temperature. The resulting suspension is centrifuged for 5 minutes at 4000 rpm. The supernatant is separated by vacuum pump and filtered thereafter through a 0.45 μm PTFE+GL filter. The first few drops of the filtrate are discarded. The resultant clear solution layer is analyzed by HPLC using columnRP-8. The content of MCH is calculated against an MCH standard 0.4 mg/mL (concentration). The content of 4-epiminocycline is calculated against MCH standard 0.02 mg/mL (concentration).
Color is tested by visual observation and in particular by comparison to “Pantone® formula guide solid uncoated” colors. […] Minocycline changes color to orange/greenish with oxidation or complexation. These oxidized colors are not desirable. Colors such as 609U/608U/610U are indicative of degradation by the tetracycline antibiotic.
For convenience the excipients were divided into four different groups (I-IV).
Different compositions of hydrophilic and hydrophobic solvents containing minocycline HCl were prepared by weighing the antibiotic in a glass vial and shaking overnight with each solvent investigated (Group I and II).
Mixtures of Minocycline HCl with solid excipients like titanium dioxide, stearyl alcohol, myristyl alcohol etc were prepared by suspending Minocycline HCl in oil with stirring and then adding the solid ingredient as a powder with stirring at room temperature (Group III an IV).
Oxidation of minocycline after the storage at various temperatures was detected by color change. Assay for content of the active pharmaceutical ingredient (API) and degradation product (4-epiminocycline) was determined in some samples.
A series of experiments were performed to evaluate which mixture of components/ingredients were compatible or incompatible with minocycline. Each component or combinations of components were mixed with either 1.1% or 2.2% Minocycline HCl. The glass vials containing the formulations were wrapped in aluminum—and were subjected to a range of temperatures 25° C.; 30° C.; 40° C.; 50 C; for between one week to about 3 weeks. The best results are shown as “compatible no oxidation”.

[2] = Doxycycline Hyclate compatibility test with excipients; type: physicochemical
Protocol: (§1) Different compositions of hydrophilic and hydrophobic solvents containing Doxycycline Hyclate (Set I and Set II) and Doxycycline Monohydrate (Set III) were prepared by weighing the antibiotic in a glass vial and shaking overnight with each solvent investigated.
Group II included Doxycycline Hyclate mixed with various vehicles with addition of antioxidants like alpha tocopherol, butylated hydroxytolyene (BHT), ascorbic acid.

[3] = Doxycycline Monohydrate compatibility test with excipients; type: physicochemical; details: for Compatibility with Doxycycline Monohydrate: Summary, compatibility tested after the storage for up to 3 weeks
Protocol: as §1, with “investigated. Mixtures of Doxycycline salts 1.04% w/w with solid excipients were prepared in a similar way as for Minocycline HCl.” for “investigated.”
A similar compatibility test was performed on another form of Doxycycline-Doxycycline Monohydrate. Table 17b and Table 18.

[4] = From the text: In one or more embodiments of the present disclosure, the foamable composition includes a potent solvent, in addition to or in place of one of the hydrophobic solvents, polar solvents or emollients of the composition. A potent solvent is a solvent other than mineral oil that solubilizes a specific active agent substantially better than a hydrocarbon solvent such as mineral oil or petrolatum.
[5] = Minocycline in hydrophilic vehicles dried with Magnesium Sulphate; type: physicochemical; details: vehicle dried by the Magnesium Sulfate procedure
Protocol: A special procedure for drying of water residues was developed. Magnesium Sulphate was added to the glass beaker filled with one of the hydrophilic vehicles. The mixture was stirred during overnight and centrifuged the following morning. Clear supernatant was collected in a separate vessel and stored in a dessicator.
The following were tested using the above procedure: mixtures of Minocycline with PEG 200, PEG 400, glycerol, prolylene glycol, polyethylene glycol.

[6] = Summary, compatibility tested after the storage for up to 3 weeks
[7] = waterless medium with alpha-tocopherol and ascorbic acid

C[Si]1(C)O[Si](C)(C)O[Si](C)(C)O[Si](C)(C)O[Si](C)(C)O1 [Cyclomethicone 5 NF]
Compatibility with Minocycline HCL [1]: Yes
Compatibility with Doxycycline Hyclate [2, 6]: Yes
Compatibility with Doxycycline Monohydrate [3]: Yes

CC(=O)N1CCN(c2ccc(OCC3COC(Cn4ccnc4)(c4ccc(Cl)cc4Cl)O3)cc2)CC1 (centres unmarked) [Ketoconazole]
Solubility in dimethyl isosorbide [4]: more than 1%
Solubility in glycofurol [4]: more than 1%
Solubility in mineral oil [4]: < 0.01%
Solubility in propylene glycol [4]: more than 1%

CC(O)CO (centres unmarked) [Propylene glycol]
Compatibility with Minocycline HCL [1]: No
Oxidation of Minocycline HCL despite added anti oxidants [1, 7]: did not prevent the oxidation
Compatibility with Doxycycline Hyclate [2, 6]: No
Oxidation of Doxycycline Hyclate despite added anti oxidants [2, 7]: did not prevent the oxidation
Compatibility with Doxycycline Monohydrate [3]: No
Oxidation of Doxycycline Monohydrate despite added anti oxidants [3, 7]: did not prevent the oxidation
Oxidation of Minocycline HCL after dissolution in dried vehicle [5]: oxidized quickly

CC(C)OC(=O)CCCCC(=O)OC(C)C [Diisopropyl adipate]
Compatibility with Minocycline HCL [1]: Yes
Compatibility with Doxycycline Hyclate [2, 6]: Yes
Compatibility with Doxycycline Monohydrate [3]: No

CC(C)CCCCCCCCCCCCCCC(=O)O [Isostearic Acid]
Compatibility with Minocycline HCL [1]: No
Compatibility with Doxycycline Hyclate [2, 6]: Yes

CCCCCCCCCCC(CO)CCCCCCCC (centres unmarked) [Octyldodecanol]
Compatibility with Minocycline HCl [1]: full compatibility; also recorded: compatible
Compatibility with Minocycline HCL [1]: Yes
Compatibility with Doxycycline Hyclate ([2]; 40° C. and 50° C. for two weeks where stated): incompatibility
Compatibility with Doxycycline Hyclate [2, 6]: No
Compatibility with Doxycycline Monohydrate [3]: No
Compatibility with Doxycycline Monohydrate (text) ([3]; as summarised in text, 40° and 50° C. for two weeks where stated): incompatibility

OCCCCO [Butylene glycol]
Compatibility with Minocycline HCL [1]: No
Compatibility with Doxycycline Hyclate [2, 6]: No
Visual inspection after the storage at 25° C. ([3]; Mixtures of 1.04% w/w of Doxycycline Monohydrate with the ingredient, stored at 25° C. for two weeks): Orange solution
Visual inspection after the storage at 50° C. ([3]; Mixtures of 1.04% w/w of Doxycycline Monohydrate with the ingredient, stored at 50° C. for two weeks): black solution
Compatibility with Doxycycline Monohydrate [3]: No

Cc1ncc([N+](=O)[O-])n1CCO [Metronidazole]
Solubility in dimethyl isosorbide [4]: more than 1%
Solubility in mineral oil [4]: < 0.01%

CCCC(=O)O[C@]1(C(=O)CO)CC[C@H]2[C@@H]3CCC4=CC(=O)CC[C@]4(C)[C@H]3[C@@H](O)C[C@@]21C [Hydrocortisone butyrate]
Solubility in glycofurol [4]: more than 1%
Solubility in mineral oil [4]: < 0.01%

CCCCC(=O)O[C@]1(C(=O)CO)[C@@H](C)C[C@H]2[C@@H]3CCC4=CC(=O)C=C[C@]4(C)[C@@]3(F)[C@@H](O)C[C@@]21C [Betamethasone valerate]
Solubility in glycofurol [4]: more than 1%
Solubility in mineral oil [4]: < 0.01%

Sorbitan Monostearate
Compatibility with Minocycline HCL [1]: Yes
Compatibility with Doxycycline Hyclate [2, 6]: Yes
